Tests used:
5-HT6 receptor = biological target: T1, 5-HT6 receptor (Homo sapiens, UniProt P50406); assay: Radioligand binding assay, serotoninergic 5-HT6 receptors; conditions: for inhibition at 1 µM: binding assay result in %, Table 5a; for Ki: read-out: Inhibition constants Ki, 5-HT6
T1 construct: purchased PerkinElmer
Method in brief: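 Values are Ki from Cheng–Prusoff, taking IC50 from Hill nonlinear regression of competition curves and KD from a Scatchard plot. Specific binding was total minus binding with excess unlabelled ligand. Radioligand displacement was detected by scintillation counting, and data were also reported as percent of control specific binding.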

receptors D4.4 = biological target: T2, receptors D4.4 (Homo sapiens, UniProt P21917); assay: Radioligand binding assay, dopaminergic D4 (D4.4) receptors; conditions: test compound 1×10^−6 M
T2 sequence (P21917 1-419): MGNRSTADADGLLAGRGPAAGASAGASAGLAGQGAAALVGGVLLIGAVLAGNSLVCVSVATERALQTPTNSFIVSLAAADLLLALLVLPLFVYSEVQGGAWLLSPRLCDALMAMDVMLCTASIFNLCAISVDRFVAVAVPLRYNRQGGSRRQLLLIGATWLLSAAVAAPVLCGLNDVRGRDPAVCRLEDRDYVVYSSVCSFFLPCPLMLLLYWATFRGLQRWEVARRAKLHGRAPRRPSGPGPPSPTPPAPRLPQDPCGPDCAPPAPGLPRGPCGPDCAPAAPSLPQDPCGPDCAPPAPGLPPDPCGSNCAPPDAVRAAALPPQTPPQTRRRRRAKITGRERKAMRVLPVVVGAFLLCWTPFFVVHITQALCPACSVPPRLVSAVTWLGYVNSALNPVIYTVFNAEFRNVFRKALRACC
Method in brief: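 Competition radioligand binding at human D2, D3 and D4.4 receptors, detected by scintillation counting; nonspecific binding defined with excess unlabelled ligand. Results as percent inhibition of control specific binding; IC50 by Hill-equation nonlinear regression; Ki via Cheng-Prusoff, with radioligand KD from Scatchard plot.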

[1] = biological target: 5-HT6 serotoninergic receptors (Homo sapiens, UniProt P50406); assay: Cellular functional assay, 5-HT6 serotoninergic receptors; assay type: cell-based; conditions: for 5-HT6 ag [%]: agonist mode, percent of control specific agonist response
Protocol: (§1) The results are expressed as a percent of control specific agonist response ((measured specific response/control specific agonist response)×100) obtained in the presence of the test compounds.
(§2) The EC50 values (concentration producing a half-maximal specific response) and IC50 values (concentration causing a half-maximal inhibition of the control specific agonist response) were determined by non-linear regression analysis of the concentration-response curves generated with mean replicate values using Hill equation curve fitting (Y=D+[(A−D)/(1+(C/C50)nH)], where Y=specific response, D=minimum specific response, A=maximum specific response, C=compound concentration, and C50=EC50 or IC50, and nH=slope factor). This analysis was performed using a software developed at Cerep (Hill software) and validated by comparison with data generated by the commercial software SigmaPlot® 4.0 for Windows® (© 1997 by SPSS Inc.).
(§3) For the antagonists, the apparent dissociation constants (Kb) were calculated using the modified Cheng Prusoff equation (Kb=IC50/(1+(A/EC50A)), where A=concentration of reference agonist in the assay, and EC50A=EC50 value of the reference agonist).

[2] = biological target: T3, serotonin transporter (SERT) (Homo sapiens, UniProt P31645); assay: Radioligand binding assay, serotonin transporter (SERT); conditions: binding assay, test compound 1×10^−6 M
T3 construct: expressed in transfected cells; host or cells: CHO cells
Method in brief: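 Radioligand competition binding with scintillation detection; specific binding is total minus binding under excess unlabelled ligand. Reported as % of control specific binding or % inhibition; IC50 from Hill-equation non-linear regression of competition curves, and Ki via Cheng-Prusoff using radioligand concentration and Scatchard-derived KD.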

5-HT7 receptor = biological target: T4, 5-HT7 receptor (Homo sapiens, UniProt P34969); assay: Radioligand binding assay, serotoninergic 5-HT7 receptors; conditions: binding assay result in %, Table 5a;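 also: test compound at 1 µM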
T4 construct: purchased PerkinElmer
Method in brief: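 Competition binding at human 5-HT7 receptors with a radioligand, detected by scintillation counting; non-specific binding was defined with excess unlabelled ligand. IC50 came from Hill-equation fits of competition curves, and Ki from Cheng–Prusoff using radioligand concentration and Scatchard-derived KD.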

[3] = biological target: D2 dopaminergic receptors (Homo sapiens, UniProt P14416); assay: Cellular functional assay, D2 dopaminergic receptors; assay type: cell-based; conditions: for D2 ag [%]: agonism, percent of control specific agonist response (3 μM dopamine for control); for D2 ag [%] / D2 antag [%]: D2S (h), HEK-293 cells; for D2 antag [%]: antagonism, stimulus dopamine (30 nM); for Kb: apparent dissociation constant, modified Cheng Prusoff equation, read-out: D2 antag Kb
Protocol: as §1, §2, §3

α2C adrenergic receptors = biological target: T5, α2C adrenergic receptors (Homo sapiens, UniProt P18825); assay: Radioligand binding assay, adrenergic α2C receptors; conditions: test compound 1×10^−6 M
T5 construct: expressed in transfected cells; host or cells: CHO cells
T5 sequence (P18825 1-462): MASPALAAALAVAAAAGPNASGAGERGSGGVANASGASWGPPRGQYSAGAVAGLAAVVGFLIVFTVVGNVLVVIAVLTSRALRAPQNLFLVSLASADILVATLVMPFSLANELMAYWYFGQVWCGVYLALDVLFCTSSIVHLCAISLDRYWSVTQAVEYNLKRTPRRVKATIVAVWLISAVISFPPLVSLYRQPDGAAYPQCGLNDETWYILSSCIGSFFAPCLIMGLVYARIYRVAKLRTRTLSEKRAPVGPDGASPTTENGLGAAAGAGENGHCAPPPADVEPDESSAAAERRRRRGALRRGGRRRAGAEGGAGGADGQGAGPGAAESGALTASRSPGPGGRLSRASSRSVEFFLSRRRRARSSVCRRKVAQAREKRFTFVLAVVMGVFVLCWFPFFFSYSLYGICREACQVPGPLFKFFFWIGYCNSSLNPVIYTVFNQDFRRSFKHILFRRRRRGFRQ
Method in brief: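 Competitive radioligand binding at human α2C receptors, with scintillation counting. Nonspecific binding defined with excess unlabelled ligand; results given as % inhibition of control specific binding. IC50 from Hill-equation fits of competition curves; Ki via Cheng-Prusoff using radioligand concentration and Scatchard-derived KD.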

T3 sequence (P31645 whole entry): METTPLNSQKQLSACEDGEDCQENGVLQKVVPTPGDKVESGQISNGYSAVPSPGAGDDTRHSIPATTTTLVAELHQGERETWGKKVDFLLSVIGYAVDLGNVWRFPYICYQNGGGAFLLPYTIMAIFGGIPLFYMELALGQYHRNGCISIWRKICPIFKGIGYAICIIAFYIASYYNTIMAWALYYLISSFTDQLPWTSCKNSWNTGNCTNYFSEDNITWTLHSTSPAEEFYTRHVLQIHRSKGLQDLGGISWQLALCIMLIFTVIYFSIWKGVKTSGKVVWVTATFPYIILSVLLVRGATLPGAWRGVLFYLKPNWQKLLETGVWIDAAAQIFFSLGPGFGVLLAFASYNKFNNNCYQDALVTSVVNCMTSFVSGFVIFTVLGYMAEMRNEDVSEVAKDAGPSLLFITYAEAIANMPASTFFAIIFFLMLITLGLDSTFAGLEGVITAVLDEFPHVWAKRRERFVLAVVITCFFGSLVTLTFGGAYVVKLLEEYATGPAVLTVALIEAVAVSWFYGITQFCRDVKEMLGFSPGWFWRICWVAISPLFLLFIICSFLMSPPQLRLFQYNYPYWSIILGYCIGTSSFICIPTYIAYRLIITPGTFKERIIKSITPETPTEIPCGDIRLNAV
Chain of 5-HT6 serotoninergic receptors (P50406 whole entry): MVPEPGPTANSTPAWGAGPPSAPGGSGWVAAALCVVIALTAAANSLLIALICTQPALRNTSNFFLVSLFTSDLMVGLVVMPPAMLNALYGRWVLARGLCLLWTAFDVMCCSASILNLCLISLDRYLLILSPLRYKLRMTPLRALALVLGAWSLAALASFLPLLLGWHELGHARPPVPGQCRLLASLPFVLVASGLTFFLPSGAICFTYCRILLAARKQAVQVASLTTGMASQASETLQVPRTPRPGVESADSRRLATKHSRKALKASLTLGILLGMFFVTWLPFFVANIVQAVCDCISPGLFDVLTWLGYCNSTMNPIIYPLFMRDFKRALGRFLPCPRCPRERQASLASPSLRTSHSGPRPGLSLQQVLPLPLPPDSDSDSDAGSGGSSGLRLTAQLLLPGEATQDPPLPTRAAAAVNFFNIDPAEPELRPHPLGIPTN
T1 sequence (P50406 whole entry): as above
T4 sequence (P34969 whole entry): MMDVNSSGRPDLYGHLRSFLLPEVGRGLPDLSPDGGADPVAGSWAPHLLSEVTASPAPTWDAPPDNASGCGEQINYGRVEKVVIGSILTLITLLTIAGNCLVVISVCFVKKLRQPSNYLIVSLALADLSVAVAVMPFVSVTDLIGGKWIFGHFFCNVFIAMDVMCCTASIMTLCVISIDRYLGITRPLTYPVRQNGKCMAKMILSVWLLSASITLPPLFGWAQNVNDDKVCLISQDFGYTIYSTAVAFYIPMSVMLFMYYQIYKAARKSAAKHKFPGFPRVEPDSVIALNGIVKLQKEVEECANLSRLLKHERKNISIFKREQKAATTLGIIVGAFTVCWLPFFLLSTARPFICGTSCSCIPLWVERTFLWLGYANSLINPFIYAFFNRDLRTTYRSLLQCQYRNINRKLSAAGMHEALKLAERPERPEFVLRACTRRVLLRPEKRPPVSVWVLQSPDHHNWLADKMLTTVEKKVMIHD
Chain of D2 dopaminergic receptors (P14416 whole entry): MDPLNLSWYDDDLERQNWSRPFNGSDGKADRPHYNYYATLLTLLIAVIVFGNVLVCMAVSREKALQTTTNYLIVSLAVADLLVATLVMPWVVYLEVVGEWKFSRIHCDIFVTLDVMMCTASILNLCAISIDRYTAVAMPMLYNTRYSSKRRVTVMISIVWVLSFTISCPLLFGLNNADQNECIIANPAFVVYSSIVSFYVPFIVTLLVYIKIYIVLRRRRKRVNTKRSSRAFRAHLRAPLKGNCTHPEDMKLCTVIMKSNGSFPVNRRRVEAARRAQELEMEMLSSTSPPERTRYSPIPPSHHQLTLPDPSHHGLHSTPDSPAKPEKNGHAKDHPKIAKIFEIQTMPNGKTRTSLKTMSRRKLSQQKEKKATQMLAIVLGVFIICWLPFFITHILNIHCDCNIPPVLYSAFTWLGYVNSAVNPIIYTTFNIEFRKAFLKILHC

SMILES	inhibition at 1 µM (5-HT6 receptor) [%]	Ki (5-HT6 receptor) [nM]	inhibition at 1 µM (receptors D4.4) [%]	5-HT6 ag [%] [1] [%]	inhibition at 1 µM [2] [%]	inhibition at 1 µM (5-HT7 receptor) [%]	D2 ag [%] [3] [%]	D2 antag [%] [3] [%]	inhibition at 1 µM (α2C adrenergic receptors) [%]	Kb [3] [nM]	Kb ([1]; apparent dissociation constant, modified Cheng Prusoff equation, read-out: 5-HT6 antag Kb) [nM]
O=S(=O)(N[C@@H]1CCN(CCCc2noc3cc(F)ccc23)C1)c1ccc2cc(Cl)ccc2c1 [Compound 200, 6-Chloro-N-[(3R)-1-[3-(6-fluoro-1,2-benzoxazol-3-yl)propyl]pyrrolidin-3-yl]naphthalene-2-sulphonamide]	99	10	49	−2	74	93	0	96	96		
O=S(=O)(N[C@@H]1CCN(CCCc2noc3cc(F)ccc23)C1)c1csc2ccccc12 [Compound 224, N-[(3R)-1-[3-(6-Fluoro-1,2-benzoxazol-3-yl)propyl]pyrrolidin-3-yl]benzothiophene-3-sulphonamide]	99	4	101	−1	64	103	5	57	79		
O=S(=O)(NC1CCN(CCCc2noc3cc(F)ccc23)C1)c1ccc2ccccc2c1 (stereo not shown) [Compound 21, N-[1-[3-(6-Fluoro-1,2-benzoxazol-3-yl)propyl]pyrrolidin-3-yl]naphthalene-2-sulphonamide]	95		83	1	59	100	6	98	78	1.6	
O=S(=O)(NC1CCN(CCCc2noc3cc(F)ccc23)C1)c1ccc2cc(Cl)ccc2c1 (stereo not shown) [Compound 23, 6-Chloro-N-[1-[3-(6-fluoro-1,2-benzoxazol-3-yl)propyl]pyrrolidin-3-yl]naphthalene-2-sulphonamide]	97		55	−1	53	95	1	87	89		
O=S(=O)(N[C@@H]1CCN(CCCc2noc3cc(F)ccc23)C1)c1ccc2ccccc2c1 [Compound 206, N-[(3R)-1-[3-(6-Fluoro-1,2-benzoxazol-3-yl)propyl]pyrrolidin-3-yl]naphthalene-2-sulphonamide]	101	6.1	87	−2	62	100	1	96	93		
O=S(=O)(NC1CCN(CCCc2noc3cc(F)ccc23)C1)c1csc2ccccc12 (stereo not shown) [Compound 26, N-[1-[3-(6-Fluoro-1,2-benzoxazol-3-yl)propyl]pyrrolidin-3-yl]-benzothiophene-3-sulphonamide]	98		101	0	66	97	3	68	76		
O=S(=O)(NC1CCN(CCCc2noc3cc(F)ccc23)C1)c1cc2ccccc2o1 (stereo not shown) [Compound 216, N-[1-[3-(6-Fluoro-1,2-benzoxazol-3-yl)propyl]pyrrolidin-3-yl]benzofuran-2-sulphonamide]	97		87	−5	53	99	0	86	80		
Cc1ccc2sc(S(=O)(=O)NC3CCN(CCCc4noc5cc(F)ccc45)C3)cc2c1 (stereo not shown) [Compound 226, N-[1-[3-(6-Fluoro-1,2-benzoxazol-3-yl)propyl]pyrrolidin-3-yl]-5-methylbenzothiophene-2-sulphonamide]	92		69	−5	54	91	0	87	86		
Cc1c(S(=O)(=O)N[C@H]2CCN(CCCc3noc4cc(F)ccc34)C2)sc2ccc(F)cc12 [Compound 203, 5-Fluoro-N-[(3S)-1-[3-(6-fluoro-1,2-benzoxazol-3-yl)propyl]pyrrolidin-3-yl]-3-methyl-benzothiophene-2-sulphonamide]	100	12	78	−2	73	99	0	80	93		
Cc1cc(S(=O)(=O)N[C@@H]2CCN(CCCc3noc4cc(F)ccc34)C2)c(C)s1 [Compound 222, N-[(3R)-1-[3-(6-Fluoro-1,2-benzoxazol-3-yl)propyl]pyrrolidin-3-yl]-2,5-dimethyl-thiophene-3-sulphonamide]	94		98	−1	2	102	6	65	77		
O=S(=O)(NC1CCN(CCCc2noc3cc(F)ccc23)C1)c1cc2ccccc2s1 (stereo not shown) [Compound 25, N-[1-[3-(6-Fluoro-1,2-benzoxazol-3-yl)propyl]pyrrolidin-3-yl]-benzothiophene-2-sulphonamide]	95		84	0	42	98	3	89	90	2.3	10
COc1ccc2cc(S(=O)(=O)NC3CCN(CCCc4noc5cc(F)ccc45)C3)ccc2c1 (stereo not shown) [Compound 227, N-[1-[3-(6-Fluoro-1,2-benzoxazol-3-yl)propyl]pyrrolidin-3-yl]-6-methoxy-naphthalene-2-sulphonamide]	94		88	−4	69	91	11	99	90		

From US20140135310A1, “SULPHONAMIDE DERIVATIVES OF ALICYCLIC AMINES FOR THE TREATMENT OF CENTRAL NERVOUS SYSTEM DISEASES” (Adamed Sp. z o.o., priority 2011, published 2014)
